Source: patent US8871753B2, “Macrocyclic compounds and their use as kinase inhibitors” (Incyte Corporation, priority 2008, dated 2014)
Where a name gives a salt, the structure may show the parent alone. Read-outs that look alike come from different tables or passages of the source.

Legend:
Assay type in all cases: biochemical
[1] = target: T1, human JAK1 (a.a. 837-1142) (Homo sapiens, UniProt P23458); assay: In vitro JAK kinase assay (HTRF, phosphorylation of a biotinylated peptide), JAK1; details: read-out: JAK1 IC50
T1 construct: human JAK1 (a.a. 837-1142); His tag (N); made in house; host or cells: insect cells (baculovirus)
T1 sequence (P23458 849-1154): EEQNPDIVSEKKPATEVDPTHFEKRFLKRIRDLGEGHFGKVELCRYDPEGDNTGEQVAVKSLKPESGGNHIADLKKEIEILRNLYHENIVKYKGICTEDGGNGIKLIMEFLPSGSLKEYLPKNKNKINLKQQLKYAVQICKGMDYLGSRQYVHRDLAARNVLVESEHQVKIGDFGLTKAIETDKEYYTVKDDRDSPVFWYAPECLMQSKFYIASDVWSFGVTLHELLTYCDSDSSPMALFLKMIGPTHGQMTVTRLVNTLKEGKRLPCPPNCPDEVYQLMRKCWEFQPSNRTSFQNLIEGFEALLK
Procedure, shortened: (§1)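 Phosphorylation of a biotinylated peptide by the JAK kinase domain, detected by HTRF with Eu-Py20 and SA-APC. ATP was 90 μM for JAK1, 30 μM for JAK2 and 3 μM for JAK3. Reactions ran 1 h at room temperature and were stopped with EDTA, followed by 40 min antibody binding.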

[2] = target: T2, human JAK2 (a.a. 828-1132) (Homo sapiens, UniProt O60674); assay: In vitro JAK kinase assay (HTRF, phosphorylation of a biotinylated peptide), JAK2
T2 construct: JAK2 (a.a. 828-1132); His tag (N); made in house; host or cells: insect cells (baculovirus)
T2 sequence (O60674 828-1132): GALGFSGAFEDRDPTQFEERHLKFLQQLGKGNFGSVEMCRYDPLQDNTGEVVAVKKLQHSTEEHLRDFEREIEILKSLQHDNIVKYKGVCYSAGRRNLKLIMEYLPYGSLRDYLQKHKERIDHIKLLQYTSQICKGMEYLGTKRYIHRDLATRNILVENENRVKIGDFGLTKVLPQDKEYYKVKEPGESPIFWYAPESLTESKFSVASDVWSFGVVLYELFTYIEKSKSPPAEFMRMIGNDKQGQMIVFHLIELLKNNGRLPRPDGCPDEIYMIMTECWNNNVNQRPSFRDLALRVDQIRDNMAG
Procedure, shortened: as §1

[3] = target: T3, human JAK3 (a.a. 781-1124) (Homo sapiens, UniProt P52333); assay: In vitro JAK kinase assay (HTRF, phosphorylation of a biotinylated peptide), JAK3
T3 construct: JAK3 (a.a. 781-1124); His tag (N); made in house; host or cells: insect cells (baculovirus)
T3 sequence (P52333 781-1124): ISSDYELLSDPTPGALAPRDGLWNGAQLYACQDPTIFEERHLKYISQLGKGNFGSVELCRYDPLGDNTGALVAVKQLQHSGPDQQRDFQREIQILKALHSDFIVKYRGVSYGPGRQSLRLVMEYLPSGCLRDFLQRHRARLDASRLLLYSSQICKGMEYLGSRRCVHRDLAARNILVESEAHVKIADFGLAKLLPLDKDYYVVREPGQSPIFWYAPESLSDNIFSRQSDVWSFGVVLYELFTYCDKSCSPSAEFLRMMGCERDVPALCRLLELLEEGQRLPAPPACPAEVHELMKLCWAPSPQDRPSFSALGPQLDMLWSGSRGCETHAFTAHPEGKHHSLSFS
Procedure, shortened: as §1

TYK2 = TYK2 (Homo sapiens, UniProt P29597); assay: TYK2 kinase inhibition (Table A1)
Sequence of TYK2 (P29597 whole entry): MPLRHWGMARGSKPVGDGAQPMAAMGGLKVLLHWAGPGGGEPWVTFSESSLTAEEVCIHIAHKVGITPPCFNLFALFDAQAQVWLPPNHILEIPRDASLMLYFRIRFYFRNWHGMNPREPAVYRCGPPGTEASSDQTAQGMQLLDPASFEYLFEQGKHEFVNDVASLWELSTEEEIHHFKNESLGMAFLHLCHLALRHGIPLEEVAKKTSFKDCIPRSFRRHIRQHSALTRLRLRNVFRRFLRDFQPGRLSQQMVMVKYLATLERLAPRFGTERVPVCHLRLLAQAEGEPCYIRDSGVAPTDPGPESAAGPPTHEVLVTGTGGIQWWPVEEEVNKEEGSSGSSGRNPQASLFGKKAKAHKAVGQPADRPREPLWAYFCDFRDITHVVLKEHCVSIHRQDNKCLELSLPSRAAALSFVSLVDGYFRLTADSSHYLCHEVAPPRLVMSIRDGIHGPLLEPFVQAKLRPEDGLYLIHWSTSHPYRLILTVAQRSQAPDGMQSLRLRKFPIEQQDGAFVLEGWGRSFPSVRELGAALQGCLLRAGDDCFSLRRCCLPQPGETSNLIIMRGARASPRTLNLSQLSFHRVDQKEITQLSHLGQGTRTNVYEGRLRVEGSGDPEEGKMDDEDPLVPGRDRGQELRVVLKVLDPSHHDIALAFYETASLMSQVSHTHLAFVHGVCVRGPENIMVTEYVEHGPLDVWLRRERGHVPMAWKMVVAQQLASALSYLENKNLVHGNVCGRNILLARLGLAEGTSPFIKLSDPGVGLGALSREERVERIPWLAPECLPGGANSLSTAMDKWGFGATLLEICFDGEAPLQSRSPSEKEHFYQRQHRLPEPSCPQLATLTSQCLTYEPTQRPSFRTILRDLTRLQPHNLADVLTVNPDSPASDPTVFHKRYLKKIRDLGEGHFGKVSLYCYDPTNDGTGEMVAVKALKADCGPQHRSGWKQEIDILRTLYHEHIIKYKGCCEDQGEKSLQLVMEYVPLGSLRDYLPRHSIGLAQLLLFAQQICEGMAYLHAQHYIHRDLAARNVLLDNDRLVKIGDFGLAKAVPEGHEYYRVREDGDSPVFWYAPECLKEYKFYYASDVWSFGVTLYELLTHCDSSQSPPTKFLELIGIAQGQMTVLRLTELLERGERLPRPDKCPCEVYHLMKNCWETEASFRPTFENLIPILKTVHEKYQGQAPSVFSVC

[4] = target: T4, Recombinant Human Anaplastic Lymphoma Kinase (Homo sapiens, UniProt Q9UM73); assay: ALK HTRF kinase assay; details: for IC50: Table B1, cells without percent sign
T4 construct: purchased Invitrogen, Carlsbad, Calif
T4 sequence (Q9UM73 19-1620): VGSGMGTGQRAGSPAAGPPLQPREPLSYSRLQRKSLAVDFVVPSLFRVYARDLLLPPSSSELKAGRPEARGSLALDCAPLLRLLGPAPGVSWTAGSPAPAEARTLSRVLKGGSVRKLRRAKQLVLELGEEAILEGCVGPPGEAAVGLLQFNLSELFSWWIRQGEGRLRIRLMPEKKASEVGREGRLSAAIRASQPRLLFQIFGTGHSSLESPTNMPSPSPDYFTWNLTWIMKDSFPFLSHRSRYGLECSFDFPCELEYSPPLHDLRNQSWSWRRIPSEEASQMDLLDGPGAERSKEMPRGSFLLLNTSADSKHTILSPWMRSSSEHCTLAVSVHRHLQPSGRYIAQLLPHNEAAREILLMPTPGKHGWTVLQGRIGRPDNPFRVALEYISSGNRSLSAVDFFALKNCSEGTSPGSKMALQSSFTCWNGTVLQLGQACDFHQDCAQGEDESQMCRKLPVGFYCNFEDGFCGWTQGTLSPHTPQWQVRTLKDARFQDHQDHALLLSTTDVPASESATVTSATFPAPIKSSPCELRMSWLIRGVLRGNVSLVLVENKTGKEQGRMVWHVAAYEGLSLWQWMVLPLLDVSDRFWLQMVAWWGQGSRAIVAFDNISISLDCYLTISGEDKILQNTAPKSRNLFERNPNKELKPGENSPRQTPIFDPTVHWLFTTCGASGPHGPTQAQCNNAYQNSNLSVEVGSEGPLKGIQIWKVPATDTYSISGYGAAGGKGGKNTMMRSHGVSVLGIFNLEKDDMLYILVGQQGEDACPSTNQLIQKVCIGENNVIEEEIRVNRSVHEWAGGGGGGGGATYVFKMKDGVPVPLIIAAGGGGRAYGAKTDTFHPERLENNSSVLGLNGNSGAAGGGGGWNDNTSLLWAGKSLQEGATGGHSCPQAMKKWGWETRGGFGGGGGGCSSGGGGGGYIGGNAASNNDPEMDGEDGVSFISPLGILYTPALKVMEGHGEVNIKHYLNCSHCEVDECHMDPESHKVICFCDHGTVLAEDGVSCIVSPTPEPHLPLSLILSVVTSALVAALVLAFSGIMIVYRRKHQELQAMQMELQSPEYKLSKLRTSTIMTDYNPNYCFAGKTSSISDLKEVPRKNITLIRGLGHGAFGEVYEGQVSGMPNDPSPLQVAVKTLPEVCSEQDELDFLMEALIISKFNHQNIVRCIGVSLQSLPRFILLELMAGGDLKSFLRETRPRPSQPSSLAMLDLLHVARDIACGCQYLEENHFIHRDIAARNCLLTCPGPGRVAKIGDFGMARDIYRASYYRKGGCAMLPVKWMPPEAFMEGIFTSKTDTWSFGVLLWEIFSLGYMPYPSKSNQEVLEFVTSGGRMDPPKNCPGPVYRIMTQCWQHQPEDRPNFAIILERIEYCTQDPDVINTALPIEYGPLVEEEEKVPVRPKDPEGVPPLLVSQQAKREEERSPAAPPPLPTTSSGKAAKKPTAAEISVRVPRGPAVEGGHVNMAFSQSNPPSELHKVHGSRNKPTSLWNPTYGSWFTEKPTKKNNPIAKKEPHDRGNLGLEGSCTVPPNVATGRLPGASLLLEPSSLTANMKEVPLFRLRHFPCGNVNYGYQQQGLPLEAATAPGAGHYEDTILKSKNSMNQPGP
Procedure, shortened: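 Biotinylated peptide substrate, recombinant human ALK; detection via europium-chelate antibody to phosphotyrosine paired with streptavidin-APC. Potency expressed as IC50 from four-parameter curve fitting.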

[5] = method AA1 (90 μM ATP) or AA2 (1000 μM ATP), not stated per value
[6] = method AA1 (30 μM ATP) or AA2 (1000 μM ATP), not stated per value
[7] = method AA1 (3 μM ATP) or AA2 (1000 μM ATP), not stated per value
[8] = compound at 500 nM or 1 mM, 90 μM ATP
[9] = compound at a concentration of 500 nM or 1 mM (not specified), cells shown as percentage

O=C(Nc1ccc2cc1CCc1cccc(c1)Nc1ncc(Cl)c(n1)N2)C1CCCN(C(=O)Nc2ccccc2)C1 (stereo not shown) [Example A50, N(3)-[6-Chloro-2,4,8,22-tetraazatetracyclo[14.3.1.1(3,7).1(9,13)]docosa-1(20),3(22),4,6,9(21),10,12,16,18-nonaen-12-yl]-N(1)-phenylpiperidine-1,3-dicarboxamide trifluoroacetate]
IC50 [1, 5]: 2.4 nM | IC50 [2, 6]: 6.5 nM | IC50 [3, 7]: 13 nM | IC50 (TYK2): 21 nM | ALK % of inhibition at a concentration of 500 nM or 1 mM [4, 8]: 37%

O=C(Nc1ccc2cc1CCc1cncc(c1)Nc1ncc(Cl)c(n1)N2)N[C@H]1CCN(C(=O)c2ccccc2)C1 [Example B227, N-[(3S)-1-benzoylpyrrolidin-3-yl]-N′-[6-chloro-2,4,8,18,22-pentaazatetracyclo[14.3.1.1(3,7).1(9,13)]docosa-1(20),3(22),4,6,9(21),10,12,16,18-nonaen-12-yl]urea bis(trifluoroacetate)]
IC50 ([1]; Table B1): 1 nM | IC50 ([2]; Table B1): 29 nM | IC50 ([3]; Table B1): 245 nM | IC50 (TYK2; Table B1): 33 nM | ALK % of inhibition at a concentration of 500 nM or 1 mM [4, 9]: 25%

CC(C)(C)C(=O)Nc1ccc2cc1CCc1cccc(c1)Nc1ncc(Cl)c(n1)N2 [Example B58, N-[6-Chloro-2,4,8,22-tetraazatetracyclo[14.3.1.1(3,7).1(9,13)]docosa-1(20), 3(22),4,6,9(21),10,12,16,18-nonaen-12-yl]-2,2-dimethylpropanamide trifluoroacetate]
IC50 ([1]; Table B1): 365 nM | IC50 ([2]; Table B1): 47 nM | IC50 ([3]; Table B1): 107 nM | IC50 (TYK2; Table B1): 228 nM | IC50 [4]: > 1000 nM

Cn1ccc2c(NC(=O)N3CCC(C(=O)Nc4ccc5cc4CCc4cccc(c4)Nc4ncc(Cl)c(n4)N5)CC3)cccc21 [Example A41, N(4)-[6-Chloro-2,4,8,22-tetraazatetracyclo[14.3.1.1(3,7).1(9,13)]docosa-1(20),3(22),4,6,9(21),10,12,16,18-nonaen-12-yl]-N(1)-(1-methyl-1H-indol-4-yl)piperidine-1,4-dicarboxamide trifluoroacetate]
IC50 [1, 5]: 5.8 nM | IC50 [2, 6]: 12 nM | IC50 [3, 7]: 157 nM | IC50 (TYK2): 102 nM | ALK % of inhibition at a concentration of 500 nM or 1 mM [4, 8]: 58%

O=C(CC1CCN(C(=O)NCc2ccccc2)CC1)Nc1ccc2cc1CCc1cncc(c1)Nc1ncc(Cl)c(n1)N2 [Example A155, N-Benzyl-4-(2-{[6-chloro-2,4,8,18,22-pentaazatetracyclo[14.3.1.1(3,7).1(9,13)]docosa-1(20),3(22),4,6,9(21),10,12,16,18-nonaen-12-yl]amino}-2-oxoethyl)piperidine-1-carboxamide bis(trifluoroacetate)]
IC50 [1, 5]: 2.4 nM | IC50 [2, 6]: 4.2 nM | IC50 [3, 7]: > 100 nM | IC50 (TYK2): 3.8 nM | ALK % of inhibition at a concentration of 500 nM or 1 mM [4, 8]: 47%

CCCS(=O)(=O)NCCNC(=O)Nc1ccc2cc1CCc1cccc(c1)Nc1ncc(Cl)c(n1)N2 [Example B326, N-{2-[({[6-Chloro-2,4,8,22-tetraazatetracyclo[14.3.1.1(3,7).1(9,13)]docosa-1(20),3(22),4,6,9(21),10,12,16,18-nonaen-12-yl]amino}carbonyl)amino]ethyl}propane-1-sulfonamide trifluoroacetate]
IC50 ([1]; Table B1): 3 nM | IC50 ([2]; Table B1): 3.4 nM | IC50 ([3]; Table B1): 7.8 nM | IC50 (TYK2; Table B1): 6.9 nM | ALK % of inhibition at a concentration of 500 nM or 1 mM ([4]; percentage inhibition of the example compound at a concentration of 500 nM or 1 mM (not specified which)): 19%

CC(C)(C)c1ccc(C(=O)Nc2ccc3cc2CCc2cccc(c2)Nc2ncc(Cl)c(n2)N3)cc1 [Example B73, 4-tert-Butyl-N-[6-chloro-2,4,8,22-tetraazatetracyclo[14.3.1.1(3,7).1(9,13)]docosa-1(20),3(22),4,6,9(21),10,12,16,18-nonaen-12-yl]benzamide trifluoroacetate]
IC50 ([1]; Table B1): 80 nM | IC50 ([2]; Table B1): 103 nM | IC50 ([3]; Table B1): 178 nM | IC50 (TYK2; Table B1): 154 nM | ALK % of inhibition at a concentration of 500 nM or 1 mM [4, 9]: 21%

O=C(CNC(=O)Nc1ccccc1)Nc1ccc2cc1CCc1cccc(c1)Nc1ncc(Cl)c(n1)N2 [Example A66, 2-[(Anilinocarbonyl)amino]-N-[6-chloro-2,4,8,22-tetraazatetracyclo[14.3.1.1(3,7).1(9,13)]docosa-1(20),3(22),4,6,9(21),10,12,16,18-nonaen-12-yl]acetamide trifluoroacetate]
IC50 [1, 5]: 9 nM | IC50 [2, 6]: 3.1 nM | IC50 [3, 7]: 6.2 nM | IC50 (TYK2): 21 nM | ALK % of inhibition at a concentration of 500 nM or 1 mM [4, 8]: 26%

N#Cc1c(Cl)cccc1N1CCC(CC(=O)Nc2ccc3cc2CCc2cncc(c2)Nc2ncc(Cl)c(n2)N3)CC1 [Example A222, 2-[1-(3-Chloro-2-cyanophenyl)piperidin-4-yl]-N-[6-chloro-2,4,8,18,22-pentaazatetracyclo[14.3.1.1(3,7).1(9,13)]docosa-1(20),3(22),4,6,9(21),10,12,16,18-nonaen-12-yl]acetamide tris(trifluoroacetate)]
IC50 [1, 5]: 3.2 nM | IC50 [2, 6]: > 200 nM | IC50 [3, 7]: > 200 nM | IC50 (TYK2): > 200 nM | ALK % of inhibition at a concentration of 500 nM or 1 mM [4, 8]: 5.6%

N#Cc1ccc(NC(=O)N2CCC(CC(=O)Nc3ccc4cc3CCc3cncc(c3)Nc3ncc(Cl)c(n3)N4)CC2)cc1 [Example A143, 4-(2-{[6-Chloro-2,4,8,18,22-pentaazatetracyclo[14.3.1.1(3,7).1(9,13)]docosa-1(20),3(22),4,6,9(21),10,12,16,18-nonaen-12-yl]amino}-2-oxoethyl)-N-(4-cyanophenyl)piperidine-1-carboxamide bis(trifluoroacetate)]
IC50 [1, 5]: 2.2 nM | IC50 [2, 6]: 1.8 nM | IC50 [3, 7]: > 100 nM | IC50 (TYK2): 1.2 nM | ALK % of inhibition at a concentration of 500 nM or 1 mM [4, 8]: 63%

O=C(Nc1ccsc1)Nc1ccc2cc1CCc1cccc(c1)Nc1ncc(Cl)c(n1)N2 [Example B89, N-[6-Chloro-2,4,8,22-tetraazatetracyclo[14.3.1.1(3,7).1(9,13)]docosa-1(20),3(22),4,6,9(21),10,12,16,18-nonaen-12-yl]-N′-3-thienylurea trifluoroacetate]
IC50 ([1]; Table B1): 2.4 nM | IC50 ([2]; Table B1): 2.9 nM | IC50 ([3]; Table B1): 40 nM | IC50 (TYK2; Table B1): 16 nM | IC50 [4]: > 1000 nM

O=C(Nc1ncc(Cl)s1)Nc1ccc2cc1CCc1cccc(c1)Nc1ncc(Cl)c(n1)N2 [Example B252, N-[6-Chloro-2,4,8,22-tetraazatetracyclo[14.3.1.1(3,7).1(9,13)]docosa-1(20),3(22),4,6,9(21),10,12,16,18-nonaen-12-yl]-N′-(5-chloro-1,3-thiazol-2-yl)urea trifluoroacetate]
IC50 ([1]; Table B1): 13 nM | IC50 ([2]; Table B1): 26 nM | IC50 ([3]; Table B1): 119 nM | IC50 (TYK2; Table B1): 62 nM | ALK % of inhibition at a concentration of 500 nM or 1 mM [4, 9]: 20%

O=C(CC1CCN(C(=O)c2cnon2)CC1)Nc1ccc2cc1CCc1cncc(c1)Nc1ncc(Cl)c(n1)N2 [Example A138, N-[6-Chloro-2,4,8,18,22-pentaazatetracyclo[14.3.1.1(3,7).1(9,13)]docosa-1(20),3(22),4,6,9(21),10,12,16,18-nonaen-12-yl]-2-[1-(1,2,5-oxadiazol-3-ylcarbonyl)piperidin-4-yl]acetamide bis(trifluoroacetate)]
IC50 [1, 5]: 2 nM | IC50 [2, 6]: 7.2 nM | IC50 [3, 7]: 30 nM | IC50 (TYK2): 8 nM | ALK % of inhibition at a concentration of 500 nM or 1 mM [4, 8]: 46%

O=C(NCc1ccccc1)Nc1ccc2cc1CCc1cccc(c1)Nc1ncc(Cl)c(n1)N2 [Example B93, N-benzyl-N′-[6-chloro-2,4,8,22-tetraazatetracyclo[14.3.1.1(3,7).1(9,13)]docosa-1(20),3(22),4,6,9(21),10,12,16,18-nonaen-12-yl]urea trifluoroacetate]
IC50 ([1]; Table B1): 2.6 nM | IC50 ([2]; Table B1): 3.4 nM | IC50 ([3]; Table B1): 43 nM | IC50 (TYK2; Table B1): 12 nM | IC50 [4]: > 1000 nM
